Legend:
DMS114 = test: Cellular activity test (Cell titer-Glo), DMS114; type: cell-based; details: Homo sapiens, DMS-114, DMS114, small cell lung cancer cell with abnormal FGFR, 72 h, read-out: Inhibitory activity against cells (IC50) DMS114
From the text: (§1) Experimental Example 2: Celluar Activity Test of the Compounds of the Present Invention
(§2) Hep3B is a cell with abnormal FGFR in hepatocellular carcinoma RT112/84 is a cell with abnormal FGFR in bladder cancer DMS114 is a cell with abnormal FGFR in small cell lung cancer AN3CA is a cell with abnormal FGFR in endometrial cancer SNU-16 is a cell with abnormal FGFR in gastric cancer
(§3) Test substance: The compounds of the present invention, the structures of which are shown above.
(§4) Test instrument: The Espire multi-function microplate reader.
(§5) Each cell line was seeded into a 96-well plate, and adherent cultured overnight. Then, the compounds at different concentrations (12 dose groups, 3× DMSO serial dilutions) were added to a final concentration of 0.17-30000 nM, with the final content of DMSO of 5‰. The negative control well was medium containing 5‰ DMSO. After incubation at 37° C., 5% CO2, 95% humidity for 72 h, the cultures would be test. 30 μL of Cell titer-Glo reagent was added to each well and incubated for 30 min at room temperature. The final data were read by Espire microplate reader.

FGFR4 = FGFR4 (Homo sapiens, UniProt P22455); test: Enzymatic activity test (LabChip EZ Reader II / Caliper), FGFR4; type: biochemical; details: FGFR4(h), FAM-labelled polypeptide substrate and ATP, 30 min incubation; read-out: Inhibitory activity against FGFR (IC50) FGFR4
Chain of FGFR4 (P22455 22-802): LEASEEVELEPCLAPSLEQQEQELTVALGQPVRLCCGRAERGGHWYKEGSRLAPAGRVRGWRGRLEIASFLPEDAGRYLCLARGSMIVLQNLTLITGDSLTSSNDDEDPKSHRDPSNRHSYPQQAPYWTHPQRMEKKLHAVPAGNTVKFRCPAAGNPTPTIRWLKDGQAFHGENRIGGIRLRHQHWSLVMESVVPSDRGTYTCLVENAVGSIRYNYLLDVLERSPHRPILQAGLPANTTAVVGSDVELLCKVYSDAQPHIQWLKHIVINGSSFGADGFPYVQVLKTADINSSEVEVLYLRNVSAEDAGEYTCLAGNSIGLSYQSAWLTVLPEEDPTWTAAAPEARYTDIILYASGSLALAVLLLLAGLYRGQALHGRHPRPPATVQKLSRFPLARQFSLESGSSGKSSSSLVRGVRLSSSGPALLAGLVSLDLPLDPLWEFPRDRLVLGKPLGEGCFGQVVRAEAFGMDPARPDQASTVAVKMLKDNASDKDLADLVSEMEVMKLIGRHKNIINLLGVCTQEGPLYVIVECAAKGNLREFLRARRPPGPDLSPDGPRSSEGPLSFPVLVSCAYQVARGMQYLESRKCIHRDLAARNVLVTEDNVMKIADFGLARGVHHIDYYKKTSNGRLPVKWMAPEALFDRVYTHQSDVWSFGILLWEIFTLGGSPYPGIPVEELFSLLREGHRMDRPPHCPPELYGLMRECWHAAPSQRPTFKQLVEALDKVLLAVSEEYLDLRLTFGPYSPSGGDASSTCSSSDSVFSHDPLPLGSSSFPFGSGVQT
Procedure: (§6) Experimental Example 1: Enzymatic Activity Test of the Compounds of the Present Invention
as §3
(§7) Test Instrument: The LabChip EZ Reader II drug screening platform.
(§8) 1. Preparation for compound plate a) 96-well plates, 10 dose groups, 3-fold serial dilutions, added DMSO to each well, maximal concentration of 500 μM. b) 384-well plates, diluted with 1× kinase buffer (50 mM HEPES, pH 7.5; 0.0015% Brij-35; 2 mM DTT), each well containing 5× compound dissolved in 5 μL of 10% DMSO. The negative control well was 5 μL of 1× kinase buffer containing 10% DMSO. 2. Experimental procedure
(§9) […] in 1× kinase buffer were reacted with 2.5× enzyme solution at room temperature for 10 min, and then the FAM-labelled polypeptide substrate and ATP were added to initiate reaction. After incubation for 30 min, 25 μL of terminal solution (100 mM HEPES, pH 7.5; 0.015% Brij-35; 0.2% Coating Reagent #3; 50 mM EDTA) was added to terminate the reaction, and the final data were read by Caliper.

FGFR3 = FGFR3 (Homo sapiens, UniProt P22607); test: Enzymatic activity test (LabChip EZ Reader II / Caliper), FGFR3; type: biochemical; details: FGFR3(h), FAM-labelled polypeptide substrate and ATP, 30 min incubation; read-out: Inhibitory activity against FGFR (IC50) FGFR3
Chain of FGFR3 (P22607 23-806): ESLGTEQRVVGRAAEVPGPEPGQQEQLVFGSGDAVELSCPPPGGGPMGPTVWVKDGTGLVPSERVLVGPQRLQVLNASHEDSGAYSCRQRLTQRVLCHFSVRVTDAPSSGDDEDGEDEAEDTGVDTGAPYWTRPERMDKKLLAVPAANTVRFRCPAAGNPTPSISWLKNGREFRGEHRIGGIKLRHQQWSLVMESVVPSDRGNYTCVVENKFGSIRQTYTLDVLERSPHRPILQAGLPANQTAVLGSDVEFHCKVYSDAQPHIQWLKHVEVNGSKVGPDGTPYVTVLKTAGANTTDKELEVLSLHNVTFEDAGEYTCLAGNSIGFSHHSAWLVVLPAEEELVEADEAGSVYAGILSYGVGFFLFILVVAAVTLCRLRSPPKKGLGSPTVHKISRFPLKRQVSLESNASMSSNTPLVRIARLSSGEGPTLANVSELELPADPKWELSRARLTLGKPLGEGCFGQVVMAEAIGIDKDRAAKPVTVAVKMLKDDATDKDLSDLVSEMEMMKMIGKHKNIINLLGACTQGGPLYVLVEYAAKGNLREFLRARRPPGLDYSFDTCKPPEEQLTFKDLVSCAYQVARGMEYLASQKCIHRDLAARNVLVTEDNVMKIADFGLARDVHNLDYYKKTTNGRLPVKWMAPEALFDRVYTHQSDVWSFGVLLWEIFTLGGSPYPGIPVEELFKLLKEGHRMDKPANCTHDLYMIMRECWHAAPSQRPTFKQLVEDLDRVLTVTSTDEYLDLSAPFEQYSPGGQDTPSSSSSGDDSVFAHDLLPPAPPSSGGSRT
Procedure: as §6, §3, §7, §8, §9

FGFR2 = FGFR2 (Homo sapiens, UniProt P21802); test: Enzymatic activity test (LabChip EZ Reader II / Caliper), FGFR2; type: biochemical; details: FGFR2(h), FAM-labelled polypeptide substrate and ATP, 30 min incubation; read-out: Inhibitory activity against FGFR (IC50) FGFR2
Chain of FGFR2 (P21802 22-821): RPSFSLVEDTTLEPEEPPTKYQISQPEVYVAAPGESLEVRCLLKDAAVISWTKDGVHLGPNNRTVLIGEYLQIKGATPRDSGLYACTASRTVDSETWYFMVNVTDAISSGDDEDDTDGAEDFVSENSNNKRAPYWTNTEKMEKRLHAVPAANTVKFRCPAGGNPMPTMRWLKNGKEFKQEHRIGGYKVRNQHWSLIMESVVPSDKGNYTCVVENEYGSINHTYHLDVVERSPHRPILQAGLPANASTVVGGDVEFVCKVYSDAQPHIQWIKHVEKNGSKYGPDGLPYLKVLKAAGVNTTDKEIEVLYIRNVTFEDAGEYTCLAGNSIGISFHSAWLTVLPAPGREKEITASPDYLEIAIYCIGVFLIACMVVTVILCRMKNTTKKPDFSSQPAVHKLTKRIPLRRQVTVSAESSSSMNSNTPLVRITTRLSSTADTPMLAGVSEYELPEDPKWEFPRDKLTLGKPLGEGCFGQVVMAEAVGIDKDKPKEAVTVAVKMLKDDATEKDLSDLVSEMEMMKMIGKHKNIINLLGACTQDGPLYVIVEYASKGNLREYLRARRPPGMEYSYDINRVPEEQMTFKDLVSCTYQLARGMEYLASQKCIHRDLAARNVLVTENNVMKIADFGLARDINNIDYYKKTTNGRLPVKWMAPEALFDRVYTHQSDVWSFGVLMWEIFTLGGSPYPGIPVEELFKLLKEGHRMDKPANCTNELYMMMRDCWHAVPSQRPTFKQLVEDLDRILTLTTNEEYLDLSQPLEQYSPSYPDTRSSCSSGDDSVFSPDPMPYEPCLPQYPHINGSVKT
Procedure: as §6, §3, §7, §8, §9

FGFR1 = FGFR1 (Homo sapiens, UniProt P11362); test: Enzymatic activity test (LabChip EZ Reader II / Caliper), FGFR1; type: biochemical; details: FGFR1(h), FAM-labelled polypeptide substrate and ATP, 30 min incubation; read-out: Inhibitory activity against FGFR (IC50) FGFR1
Chain of FGFR1 (P11362 22-822): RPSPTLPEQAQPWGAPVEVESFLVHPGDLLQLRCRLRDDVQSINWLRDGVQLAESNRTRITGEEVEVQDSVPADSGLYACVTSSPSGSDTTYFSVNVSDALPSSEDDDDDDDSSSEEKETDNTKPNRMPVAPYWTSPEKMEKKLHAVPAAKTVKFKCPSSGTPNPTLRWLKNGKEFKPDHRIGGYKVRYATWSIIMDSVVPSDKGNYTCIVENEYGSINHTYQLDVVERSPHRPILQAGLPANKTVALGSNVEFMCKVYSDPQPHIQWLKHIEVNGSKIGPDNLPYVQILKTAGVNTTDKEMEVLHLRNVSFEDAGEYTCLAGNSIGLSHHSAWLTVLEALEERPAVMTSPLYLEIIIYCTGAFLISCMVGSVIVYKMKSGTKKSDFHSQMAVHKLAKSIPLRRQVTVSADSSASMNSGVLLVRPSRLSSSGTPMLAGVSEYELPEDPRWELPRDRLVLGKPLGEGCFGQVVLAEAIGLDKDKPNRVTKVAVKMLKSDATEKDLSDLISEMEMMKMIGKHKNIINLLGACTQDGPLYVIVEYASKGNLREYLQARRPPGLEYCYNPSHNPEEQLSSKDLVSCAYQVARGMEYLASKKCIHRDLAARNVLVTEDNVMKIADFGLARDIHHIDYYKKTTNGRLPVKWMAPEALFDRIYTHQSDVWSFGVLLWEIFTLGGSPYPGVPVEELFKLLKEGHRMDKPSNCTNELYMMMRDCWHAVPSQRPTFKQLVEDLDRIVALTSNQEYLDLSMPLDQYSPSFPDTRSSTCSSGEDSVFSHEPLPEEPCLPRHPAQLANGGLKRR
Procedure: as §6, §3, §7, §8, §9

Hep3B = test: Cellular activity test (Cell titer-Glo), Hep3B; type: cell-based; details: Homo sapiens, hepatocellular carcinoma cell with abnormal FGFR, 72 h, read-out: Inhibitory activity against cells (IC50) Hep3B
From the text: as §1, §2, §3, §4, §5

RT112/84 = test: Cellular activity test (Cell titer-Glo), RT112/84; type: cell-based; details: Homo sapiens, RT112/84, bladder cancer cell with abnormal FGFR, 72 h, read-out: Inhibitory activity against cells (IC50) RT112/84
From the text: as §1, §2, §3, §4, §5

SNU-16 = test: Cellular activity test (Cell titer-Glo), SNU-16; type: cell-based; details: Homo sapiens, SNU-16, gastric cancer cell with abnormal FGFR, 72 h, read-out: Inhibitory activity against cells (IC50) SNU-16
From the text: as §1, §2, §3, §4, §5

AN3CA = test: Cellular activity test (Cell titer-Glo), AN3CA; type: cell-based; details: Homo sapiens, AN3-CA, endometrial cancer cell with abnormal FGFR, 72 h, read-out: Inhibitory activity against cells (IC50) AN3CA
From the text: as §1, §2, §3, §4, §5

Row | Compound | IC50 (FGFR4) [nM] | IC50 (FGFR3) [nM] | IC50 (FGFR2) [nM] | IC50 (FGFR1) [nM] | IC50 (DMS114) [nM] | IC50 (Hep3B) [nM] | IC50 (RT112/84) [nM] | IC50 (SNU-16) [nM] | IC50 (AN3CA) [nM]
1 | C=CC(=O)N1C[C@@H](Nc2ncc3cc(-c4c(Cl)c(OC)cc(OC)c4Cl)ccc3n2)C[C@@H]1CO [Compound 23] |  |  |  |  | 31 | 26 | 50 | 22 | 86
2 | C=CC(=O)N1C[C@@H](Nc2ncc3cc(-c4c(Cl)c(OC)cc(OC)c4Cl)ccc3n2)C[C@H]1CF [Compound 24, 1-((2S,4S)-4-((6-(2,6-dichloro-3,5-dimethoxyphenyl)quinazolin-2-yl)amino)-2-(fluoromethyl)pyrrolidin-1-yl)prop-2-en-1-one] |  |  |  |  |  | 46 | 153 | 48 | 
3 | C=CC(=O)N1CC2(CC(Nc3ncc4cc(-c5c(Cl)c(OC)cc(OC)c5Cl)ccc4n3)C2)C1 [Compound 65, 1-(6-((6-(2,6-dichloro-3,5-dimethoxyphenyl)quinazolin-2-yl)amino)-2-azaspiro[3.3]heptan-2-yl)prop-2-en-1-one] |  |  |  |  |  | 66 | 161 | 92 | 

The next lines start with results.

Row | IC50 (FGFR4) [nM] | IC50 (FGFR3) [nM] | IC50 (FGFR2) [nM] | IC50 (FGFR1) [nM] | Compound | IC50 (DMS114) [nM] | IC50 (Hep3B) [nM] | IC50 (RT112/84) [nM] | IC50 (SNU-16) [nM] | IC50 (AN3CA) [nM]
4 | 175 | 18 | 5.5 | 5.4 | C=CC(=O)N1CC[C@H](Nc2ncc3cc(-c4c(Cl)c(OC)cc(OC)c4Cl)ccc3n2)C1 [Compound 5, (S)-1-(3-((6-(2,6-dichloro-3,5-dimethoxyphenyl)quinazolin-2-yl)amino)pyrrolidin-1-yl)propyl-2-en-1-one] | 58 | 153 | 56 |  | 
5 | 68 | 34 | 15 | 15 | C=CC(=O)N1C[C@@H](C)[C@H](Nc2ncc3cc(-c4c(Cl)c(OC)cc(OC)c4Cl)ccc3n2)C1 [Compound 20, 1-((3S,4R)-3-((6-(2,6-dichloro-3,5-dimethoxyphenyl)quinazolin-2-yl)amino)-4-methylpyrrolidin-1-yl)propyl-2-en-1-one] | 113 | 50.2 | 77 |  | 
6 | 101 | 19 | 4.4 | 4.6 | C=CC(=O)N1C[C@@H](Nc2ncc3cc(-c4c(Cl)c(OC)cc(OC)c4Cl)ccc3n2)C[C@H]1CO [Compound 22, 1-((2S,4S)-4-((6-(2,6-dichloro-3,5-dimethoxyphenyl)quinazolin-2-yl)amino)-2-(hydroxymethyl)pyrrolidin-1-yl)prop-2-en-1-one] | 25 | 32.2 | 40 | 11 | 59

— patent US20200108070A2, “INHIBITORS OF FIBROBLAST GROWTH FACTOR RECEPTOR AND USE THEREOF” (Nanjing TransThera Biosciences Co. Ltd., priority 2016, published 2020)
